Source: patent US9402827B2, “Treatment of gout” (ARDEA BIOSCIENCES, INC., priority 2010, dated 2016)
pIC50: −log10 of the molar value. Values joined by “and” are separate entries in the source; they are usually repeats but may differ in a detail not shown here. Identical values can stand only once.

What was measured:
[1] = system: TNF-α; assay: In vitro THP-1 (human cell) assay, TNF-α; assay type: cell-based; conditions: differentiated THP-1 cells, 6 hours, FIG. 3A
Procedure: Uric acid (2 g, Sigma, Cat #U0881, Log S89329-419) was heated in a flask at 200° C. for 2 hours. Endotoxin free water (396 mL) followed by aqueous sodium hydroxide solution (2.375 mL of 5N or 1.19 mL 10N) were added and heated on a stir plate until the uric acid dissolved. […] The solution was stirred at room temperature for 24 hours and then centrifuged at 1000 g for 10 min. The supernatant was discarded and resuspended in PBS and centrifuged at 1000 g for 10 min; this step was repeated twice. The washed crystals were heated at 60° C. until dry and then autoclaved at 200° C. for 2 hours. The crystals were then weighed and resuspended in PBS at a concentration of 26 mg/ml.
THP-1 cells were differentiated with 0.5 μM of phorbol myristate acetate (PMA) incubated for 3 hours. Cells were then spun down and washed once with HBSS. 1.25×10^6/mL cells were plated in white clear bottom white 96 well plate in 100 μL volume and incubated overnight. The next day the media was aspirated from the wells. 100 μL of 1× Optimem along with the compounds were added.

[2] = system: monosodium urate (MSU) crystal injection-induced inflammation; assay: In vivo MSU-induced inflammation, rat air pouch study (Example 3B); parameters: species or system Sprague-Dawley rats; conditions: for Extravasation (optical absorbance at 620 nm), Av / Extravasation (optical absorbance at 620 nm), individual rats 1-10 / Exudate volume, Av / Exudate volume, individual rats 1-10 / Total white blood cell count, Av / Total white blood cell count, individual rats 1-10: 4 h after MSU
Procedure: (Air Pouch studies) were unpacked, placed in cages, a health inspection performed and a number assigned. […] Under anesthesia, 30 mL sterile air was injected subcutaneously on day 0 and day 3. Vehicle (water) or Lesinurad were administered orally. On the day of the experiment, rats were dosed with Vehicle, Lesinurad p.o., and/or colchicine s.c. (Sigma, Cat.#C9754, Lot.#188K1131). […] The pouch was gently massaged and the exudate was immediately removed from the air pouch. The exudate volume was measured and recorded for each animal. […] The supernatants were stored at −20° C. for cytokine analysis. […] Plasma extravasation was measured by optical absorbance at 620 nm for each exudate sample.

[3] = system: monosodium urate crystal-induced inflammatory response; assay: Rat air pouch model of crystal-induced arthropathy (Example 3A); assay type: in vivo, Sprague-Dawley rats; conditions: Lesinurad 10, 30 and 100 mg/kg PO; MSU 150 mg; FIG. 5
Procedure: Procedure • 1. […] NaOH was added as required to maintain pH 8-9. The solution was filtered and incubated at ambient with slow stirring continuously for 24 hours. • b. Crystals were washed, dried and sterilized by autoclaving. • c. […] The rats were anesthetized and bled for sample from retro-orbital sinus into microtainer tubes. • a. The blood was processed to serum; • b. The serum was transferred to labeled Eppendorf tubes (T=0) and stored at −80° C. • c. […] DAY 0: The rats are anesthetized. • a. The nape of the neck was shaved, cleansed with 70% isopropanol followed by cleansing with Povidone. • b. A 23-gauge needle was attached to a 30 ml syringe fitted with an air filter. • c. 30 ml of sterile air was injected subcutaneously and the rat returned to routine maintenance. • 7. DAY 3: Steps 6a) through 6c) were repeated. • 8. […] Exudates volume was measured and recorded for each animal. • a. […] Mean cell counts and standard deviations were determined for each group. • b. Mean optical absorbance measurements and standard deviations were determined for each group. • c. Group means and standard deviations for TNF-alpha and IL-1 were determined for each group. • d. Statistical significance of treatments on mean cell counts, mean optical absorbance measurements and mean cytokine measurements were determined by comparison of means for treatment and positive control groups with vehicle group.

[4] = system: gout flares; assay: Phase II clinical trial, gout dose response study: incidence of gout flares (Example 4); assay type: in vivo, human

## O=C(O)CSc1nnc(Br)n1-c1ccc(C2CC2)c2ccccc12 [Lesinurad, 2-(5-bromo-4-(4-cyclopropylnaphthalen-1-yl)-4H-1,2,4-triazol-3-ylthio)acetic acid]
[1]
  pIC50: ~4.28
[2]; Lesinurad 0.1 mg/kg p.o.
  Extravasation (optical absorbance at 620 nm), Av: 1.87
  Extravasation (optical absorbance at 620 nm), individual rats 1-10: 1.84 and 1.83 and 1.89 and 2.19 and 1.54 and 2.14 and 1.94 and 1.61 and 1.90 and 1.88
  Exudate volume, Av: 9.18 mL
  Exudate volume, individual rats 1-10: 8 mL (3×) and 9 mL and 11 mL and 10 mL and 9.6 mL and 9.2 mL and 7 mL and 12 mL
  Total white blood cell count, Av: 0.92 ×10^8
  Total white blood cell count, individual rats 1-10: 0.14 ×10^8 (2×) and 0.07 ×10^8 and 2.28 ×10^8 and 2.75 ×10^8 and 0.48 ×10^8 and 0.92 ×10^8 and 0.03 ×10^8 and 2.00 ×10^8 and 0.39 ×10^8
[2]; Lesinurad 1 mg/kg p.o.
  Extravasation (optical absorbance at 620 nm), Av: 1.87
  Extravasation (optical absorbance at 620 nm), individual rats 1-10: 1.79 (2×) and 2.01 and 2.27 and 1.36 and 1.94 and 1.67 and 1.98 and 2.04 and 1.83
  Exudate volume, Av: 9.68 mL
  Exudate volume, individual rats 1-10: 9.6 mL and 7 mL (2×) and 13 mL and 5 mL and 10 mL and 12 mL and 14 mL and 7.8 mL and 11.4 mL
  Total white blood cell count, Av: 0.41 ×10^8
  Total white blood cell count, individual rats 1-10: 0.19 ×10^8 and 0.44 ×10^8 and 0.68 ×10^8 and 0.01 ×10^8 and 0.48 ×10^8 and 0.54 ×10^8 and 0.26 ×10^8 and 1.17 ×10^8 and 0.34 ×10^8 and 0.02 ×10^8
[2]; Lesinurad 10 mg/kg
  Extravasation, in words: reduced extravasation
[2]; Lesinurad 10 mg/kg p.o.
  Extravasation (optical absorbance at 620 nm), Av: 1.03
  Extravasation (optical absorbance at 620 nm), individual rats 1-10: 1.20 and 0.93 and 0.89 and 0.77 and 0.71 and 0.97 and 0.82 (2×) and 1.94 and 1.25
  Exudate volume, Av: 8.29 mL
  Exudate volume, individual rats 1-10: 7 mL and 10 mL and 6 mL (2×) and 8 mL and 9 mL (2×) and 12 mL and 8.4 mL and 7.5 mL
  Total white blood cell count, Av: 0.57 ×10^8
  Total white blood cell count, individual rats 1-10: 0.60 ×10^8 and 0.15 ×10^8 and 0.08 ×10^8 and 0.16 ×10^8 and 0.55 ×10^8 and 1.01 ×10^8 and 1.02 ×10^8 and 0.95 ×10^8 and 0.29 ×10^8 and 0.90 ×10^8
[2]; Lesinurad 10 mg/kg/day
  Exudate volume, in words: significantly reduced exudate volume
[2]; Lesinurad 0.1, 1 and 10 mg/kg/day
  Number of white blood cells, in words: significantly lowered the number of white blood cells
[2]; Lesinurad 0.1 and 1 mg/kg/day
  Exudate volume, in words: did not significantly reduce exudate volume
[2]; cytokines measured in air pouch exudates
  IL-4 levels in the exudates: significantly reduced IL-4 levels
[3]
  monosodium urate crystal-induced inflammatory response (total white blood cell counts): blocked
[4]; 400 mg at time of flare (1/65)
  % of patients with Flares by Dose at Time of Flare: 2% (1/65)
[4]; 600 mg at time of flare
  Mean Duration of Flares (by dose at time of flare): 1.7 days
[4]; Randomized dose group 400 mg, N 33
  % Patients with Flares: 12%
[4]; Randomized dose group 600 mg
  Mean Duration of Flares: 1.5 days
[4]; across dose groups 200-600 mg
  Duration of flares, in words: shorter at higher doses
[4]; first week, patients receiving 200 mg QD
  Flares in the first week out of total flares on drug: 6/10
